Assay results as given in ChEMBL document CHEMBL3813599, “Identification of small-molecule compounds targeting the dishevelled PDZ domain by virtual screening and binding studies” (Bioorg Med Chem, 2016).
Activity calls are given as the source filed them. The calls are words filed in the database; no cut-off is given here.

Key:
[1] = target: T1, Segment polarity protein dishevelled homolog DVL-1 (Homo sapiens) (UniProt O14640)
T1 sequence (whole entry): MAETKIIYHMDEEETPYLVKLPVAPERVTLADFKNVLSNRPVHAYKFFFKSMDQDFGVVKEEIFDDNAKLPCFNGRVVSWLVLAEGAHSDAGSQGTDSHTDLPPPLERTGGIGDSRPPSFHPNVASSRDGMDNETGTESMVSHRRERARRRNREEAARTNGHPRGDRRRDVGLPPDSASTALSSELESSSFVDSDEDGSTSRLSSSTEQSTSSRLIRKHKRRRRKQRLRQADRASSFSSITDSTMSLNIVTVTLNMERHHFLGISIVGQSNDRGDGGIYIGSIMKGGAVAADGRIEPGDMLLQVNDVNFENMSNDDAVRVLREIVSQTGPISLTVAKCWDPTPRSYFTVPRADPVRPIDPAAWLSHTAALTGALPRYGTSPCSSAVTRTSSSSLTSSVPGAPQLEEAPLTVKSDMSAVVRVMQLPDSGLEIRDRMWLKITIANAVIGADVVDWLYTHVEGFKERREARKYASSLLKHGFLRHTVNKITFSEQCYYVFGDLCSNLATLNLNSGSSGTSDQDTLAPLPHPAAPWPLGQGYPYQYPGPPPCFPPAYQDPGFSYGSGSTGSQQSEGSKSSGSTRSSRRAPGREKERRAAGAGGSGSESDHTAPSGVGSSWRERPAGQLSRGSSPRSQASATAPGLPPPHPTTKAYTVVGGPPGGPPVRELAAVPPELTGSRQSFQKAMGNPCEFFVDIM
Description: Binding affinity to His-tagged Dvl-1 PDZ domain (247 to 337 residues) (unknown origin) expressed in Escherichia coli BL21 (DE3) assessed as association rate by SPR analysis

[2] = target: T2, Segment polarity protein dishevelled homolog DVL-1 (Homo sapiens, UniProt O14640); assay: Binding affinity to His-tagged Dvl-1 PDZ domain (247 to 337 residues) (unknown origin) expressed in Escherichia coli BL21 (DE3) assessed as dissociation rate by SPR analysis
T2 sequence (O14640 whole entry): T1 sequence (whole entry)

[3] = target: T2, Segment polarity protein dishevelled homolog DVL-1; assay: Binding affinity to His-tagged Dvl-1 PDZ domain (247 to 337 residues) (unknown origin) expressed in Escherichia coli BL21 (DE3) by SPR analysis
[4] = target: T1, Segment polarity protein dishevelled homolog DVL-1 (Homo sapiens); assay: Binding affinity to His-tagged Dvl-1 PDZ domain (247 to 337 residues) (unknown origin) expressed in Escherichia coli BL21 (DE3) assessed as chemical shift perturbations at 1:0 to 1:20 protein-compound ratio by 1H-15N-HSQC NMR analysis
[5] = target: T3, Segment polarity protein dishevelled homolog DVL-1 (Mus musculus, UniProt P51141); assay: Binding affinity to TMR-linked 15N-labeled mouse Dvl-1 domain ( 247 to 341 residues) by fluorescence spectroscopy
T3 sequence (P51141 whole entry): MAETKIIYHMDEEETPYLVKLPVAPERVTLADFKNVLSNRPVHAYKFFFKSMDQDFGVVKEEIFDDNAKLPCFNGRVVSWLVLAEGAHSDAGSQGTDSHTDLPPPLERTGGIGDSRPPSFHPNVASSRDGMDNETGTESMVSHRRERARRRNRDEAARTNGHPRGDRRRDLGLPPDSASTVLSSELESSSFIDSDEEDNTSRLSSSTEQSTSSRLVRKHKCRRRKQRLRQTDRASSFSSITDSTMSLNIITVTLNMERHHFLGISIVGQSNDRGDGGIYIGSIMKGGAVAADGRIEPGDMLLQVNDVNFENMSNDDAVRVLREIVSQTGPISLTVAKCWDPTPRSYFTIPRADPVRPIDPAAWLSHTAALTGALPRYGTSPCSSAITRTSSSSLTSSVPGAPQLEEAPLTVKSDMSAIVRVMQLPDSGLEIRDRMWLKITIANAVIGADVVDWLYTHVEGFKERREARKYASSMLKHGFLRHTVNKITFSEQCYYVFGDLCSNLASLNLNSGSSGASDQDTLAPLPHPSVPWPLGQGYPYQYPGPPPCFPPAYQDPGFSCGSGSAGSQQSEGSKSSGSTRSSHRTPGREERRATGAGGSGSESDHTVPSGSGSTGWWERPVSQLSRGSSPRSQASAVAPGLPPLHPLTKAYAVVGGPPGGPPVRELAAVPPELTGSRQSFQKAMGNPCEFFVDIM

Structure (SMILES) | Ka [1] | Dissociation rate constant (koff) [2] | Kd [3] [µM] | Activity [4] | Kd [5] [µM]
COC(=O)CN1C(=O)S/C(=C/c2ccc(-c3cccc(C(=O)O)c3C)o2)C1=O | 4.68 ×10⁶ /M/s | – | 251 | – | –
O=C(O)C1CCN(C(=O)c2cc(-c3ccc(Cl)s3)nc3ccccc23)CC1 | 5.47 ×10⁴ /M/s | 1.7 ×10¹ /s | 311 | – | –
CC(C)[C@H](OC(=O)[C@H](C)NC(=O)[C@@H](OC(=O)[C@H](C)NC(=O)OC(C)(C)C)C(C)C)C(=O)O | – | – | – | – | 237

The remaining molecules from weak to strong by Kd [3], led by results:

Ka [1] | Dissociation rate constant (koff) [2] | Kd [3] [µM] | Activity [4] | Kd [5] [µM] | Structure (SMILES)
3.2 ×10³ /M/s | 2.51 s⁻¹ | 783 | – | – | COC(=O)COc1ccc(/C=C2\Sc3ccccc3C2=O)cc1
2.32 ×10³ /M/s | 6.22 ×10⁻¹ /s | 268 | Active | – | COc1cc(/C=C2\Sc3ccccc3C2=O)ccc1OCC(=O)O
2.5 ×10³ /M/s | 3.81 ×10⁻¹ /s | 152 | – | – | CCCN1C(=O)/C(=C/c2ccc(OCC(=O)O)c(Cl)c2)NC1=S
1.04 ×10⁴ /M/s | 1.45 s⁻¹ | 139 | – | – | O=C(O)Cc1coc2cc(OS(=O)(=O)c3ccc(Cl)cc3F)ccc12
